According to patent US9139529B2, “Substituted quinoxalines as sodium channel modulators” (VERTEX PHARMACEUTICALS INCORPORATED, priority 2013, dated 2015):

Target: human Nav1.8 (Homo sapiens (Human), UniProt Q9Y5Y9)
Assay: E-VIPR optical membrane potential assay with electrical stimulation
Assay type: cell-based
Conditions: HEK cells expressing human Nav1.8
Excerpt: Assays for Detecting and Measuring NaV Inhibition Properties of Compounds E-VIPR Optical Membrane Potential Assay Method with Electrical Stimulation
Sodium channels are voltage-dependent proteins that can be activated by inducing membrane voltage changes by applying electric fields. The electrical stimulation instrument and methods of use are described in Ion Channel Assay Methods PCT/US01/21652, herein incorporated by reference and are referred to as E-VIPR. The instrument comprises a microtiter plate handler, an optical system for exciting the coumarin dye while simultaneously recording the coumarin and oxonol emissions, a waveform generator, a current- or voltage-controlled amplifier, and a device for inserting electrodes in well. Under integrated computer control, this instrument passes user-programmed electrical stimulus protocols to cells within the wells of the microtiter plate.
24 hours before the assay on E-VIPR, HEK cells expressing human Nav1.8 were seeded in 384-well poly-lysine coated plates at 15,000-20,000 cells per well. HEK cells were grown in media (exact composition is specific to each cell type and NaV subtype) supplemented with 10% FBS (Fetal Bovine Serum, qualified; GibcoBRL #16140-071) and 1% Pen-Strep (Penicillin-Streptomycin; GibcoBRL #15140-122). Cells were grown in vented cap flasks, in 90% humidity and 5% CO2.
1) Pre-spotted compounds (in neat DMSO) into compound plates. Vehicle control (neat DMSO), the positive control (20 mM DMSO stock tetracaine, 125 μM final in assay) and test compounds were added to each well at 160× desired final concentration in neat DMSO. Final compound plate volume was 80 μL (80-fold intermediate dilution from 1 μL DMSO spot; 160-fold final dilution after transfer to cell plate). Final DMSO concentration for all wells in assay was 0.625%.
2) Prepared Hexyl Dye Solution.
3) Prepared cell plates. On the day of the assay, medium was aspirated and cells were washed three times with 100 μL of Bath1 Solution, maintaining 25 μL residual volume in each well.
4) Dispensed 25 μL per well of Hexyl Dye Solution into cell plates. Incubated for 20-35 minutes at room temp or ambient conditions.
5) Dispensed 80 μL per well of Bath1 into compound plates. Acid Yellow-17 (1 mM) was added and Potassium Chloride was altered from 4.5 to 20 mM depending on the NaV subtype and assay sensitivity.
6) Washed cell plates three times with 100 μL per well of Bath1, leaving 25 μL of residual volume. Then transferred 25 uL per well from Compound Plates to Cell Plates. Incubated for 20-35 minutes at room temp/ambient condition.
7) Read Plate on E-VIPR. Used the current-controlled amplifier to deliver stimulation wave pulses for 10 seconds and a scan rate of 200 Hz. A pre-stimulus recording was performed for 0.5 seconds to obtain the un-stimulated intensities baseline. The stimulatory waveform was followed by 0.5 seconds of post-stimulation recording to examine the relaxation to the resting state.
Data was analyzed and reported as normalized ratios of emission intensities measured in the 460 nm and 580 nm channels. The response as a function of time was reported as the ratios obtained using the following formula: […]
The data was further reduced by calculating the initial (Ri) and final (Rf) ratios. These were the average ratio values during part or all of the pre-stimulation period, and during sample points during the stimulation period. The response to the stimulus R=Rf/Ri was then calculated and reported as a function of time.
Control responses were obtained by performing assays in the presence of a compound with the desired properties (positive control), such as tetracaine, and in the absence of pharmacological agents (negative control). Responses to the negative (N) and positive (P) controls were calculated as above. The compound antagonist activity A is defined as:
[formula] where R is the ratio response of the test compound

Sequence of human Nav1.8 (Q9Y5Y9 whole entry): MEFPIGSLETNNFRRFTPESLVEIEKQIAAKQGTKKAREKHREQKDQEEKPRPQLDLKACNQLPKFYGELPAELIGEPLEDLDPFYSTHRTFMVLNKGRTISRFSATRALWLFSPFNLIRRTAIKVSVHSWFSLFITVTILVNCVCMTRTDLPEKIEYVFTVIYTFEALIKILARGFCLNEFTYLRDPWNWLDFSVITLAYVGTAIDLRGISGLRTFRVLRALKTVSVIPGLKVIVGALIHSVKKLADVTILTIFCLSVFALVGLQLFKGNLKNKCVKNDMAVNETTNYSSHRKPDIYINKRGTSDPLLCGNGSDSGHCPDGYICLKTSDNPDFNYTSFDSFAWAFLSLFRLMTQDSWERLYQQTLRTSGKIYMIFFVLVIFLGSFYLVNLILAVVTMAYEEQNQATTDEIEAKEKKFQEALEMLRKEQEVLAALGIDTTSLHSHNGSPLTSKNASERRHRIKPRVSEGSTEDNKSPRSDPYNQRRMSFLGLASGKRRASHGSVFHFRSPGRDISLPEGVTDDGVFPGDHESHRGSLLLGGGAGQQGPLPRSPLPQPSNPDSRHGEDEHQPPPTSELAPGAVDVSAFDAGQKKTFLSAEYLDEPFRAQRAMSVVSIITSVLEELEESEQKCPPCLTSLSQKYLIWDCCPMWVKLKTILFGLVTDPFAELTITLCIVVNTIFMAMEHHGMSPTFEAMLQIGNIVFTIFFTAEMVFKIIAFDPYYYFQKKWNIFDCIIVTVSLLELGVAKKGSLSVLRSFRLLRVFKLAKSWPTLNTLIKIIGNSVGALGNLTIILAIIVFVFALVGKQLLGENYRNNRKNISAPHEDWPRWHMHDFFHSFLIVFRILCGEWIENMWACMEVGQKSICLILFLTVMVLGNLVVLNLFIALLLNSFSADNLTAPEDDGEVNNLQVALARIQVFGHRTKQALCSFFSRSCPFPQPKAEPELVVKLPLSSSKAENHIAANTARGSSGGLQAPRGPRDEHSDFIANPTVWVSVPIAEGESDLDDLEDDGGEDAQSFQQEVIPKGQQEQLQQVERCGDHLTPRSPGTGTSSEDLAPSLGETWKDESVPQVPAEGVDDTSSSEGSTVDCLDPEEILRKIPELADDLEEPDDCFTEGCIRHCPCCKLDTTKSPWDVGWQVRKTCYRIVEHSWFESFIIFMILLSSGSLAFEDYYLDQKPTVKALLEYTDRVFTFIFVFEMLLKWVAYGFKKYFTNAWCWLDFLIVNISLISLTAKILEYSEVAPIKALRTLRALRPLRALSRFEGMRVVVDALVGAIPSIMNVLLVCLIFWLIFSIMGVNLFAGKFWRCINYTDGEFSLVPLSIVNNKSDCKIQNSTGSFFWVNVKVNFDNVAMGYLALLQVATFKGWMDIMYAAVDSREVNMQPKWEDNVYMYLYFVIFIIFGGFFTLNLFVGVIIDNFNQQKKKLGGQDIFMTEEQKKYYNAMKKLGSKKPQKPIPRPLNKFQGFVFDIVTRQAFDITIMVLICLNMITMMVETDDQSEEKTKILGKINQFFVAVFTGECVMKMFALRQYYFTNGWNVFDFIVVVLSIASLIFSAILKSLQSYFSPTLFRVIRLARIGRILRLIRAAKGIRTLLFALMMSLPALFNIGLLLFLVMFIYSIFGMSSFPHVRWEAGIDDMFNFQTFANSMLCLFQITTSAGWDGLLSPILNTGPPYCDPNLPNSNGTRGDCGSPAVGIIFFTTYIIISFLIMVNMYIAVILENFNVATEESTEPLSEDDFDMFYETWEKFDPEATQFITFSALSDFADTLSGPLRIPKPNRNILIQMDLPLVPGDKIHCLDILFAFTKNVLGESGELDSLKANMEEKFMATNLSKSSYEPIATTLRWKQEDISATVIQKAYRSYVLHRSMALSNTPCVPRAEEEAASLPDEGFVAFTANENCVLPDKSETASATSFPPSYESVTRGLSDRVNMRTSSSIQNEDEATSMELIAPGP

IC50	SMILES
46 nM	COc1ccc(Oc2nc3ccccc3nc2C(=O)Nc2ccc(C(=O)O)nc2)c(OC)c1 [Compound 26, 5-(3-(2,4-dimethoxyphenoxy)quinoxaline-2-carboxamido)picolinic acid]
185 nM	O=C(O)c1ccc(NC(=O)c2nc3ccccc3nc2Oc2ccc(F)cc2F)cn1 [Compound 29, 5-(3-(2,4-difluorophenoxy)quinoxaline-2-carboxamido)picolinic acid]
30 nM	COc1cc(F)ccc1Oc1nc2ccccc2nc1C(=O)Nc1cccc(C#N)c1 [Compound 56, N-(3-cyanophenyl)-3-(4-fluoro-2-methoxyphenoxy)quinoxaline-2-carboxamide]
250 nM	O=C(O)c1ccc(NC(=O)c2nc3ccccc3nc2Oc2ccc(F)cc2)cn1 [Compound 18, 5-(3-(4-fluorophenoxy)quinoxaline-2-carboxamido)picolinic acid]
83 nM	COc1cc(F)ccc1Oc1nc2ccccc2nc1C(=O)Nc1ccc(C(=O)O)nc1 [Compound 32, 5-(3-(4-fluoro-2-methoxyphenoxy)quinoxaline-2-carboxamido)picolinic acid]
1 nM	COc1cc(F)ccc1Oc1nc2ccccc2nc1C(=O)Nc1cccc(S(C)(=O)=O)c1 [Compound 46, 3-(4-fluoro-2-methoxyphenoxy)-N-(3-(methylsulfonyl)phenyl)quinoxaline-2-carboxamide]
235 nM	COc1ccc(Oc2nc3ccccc3nc2C(=O)Nc2ccc(C(=O)O)nc2)c(F)c1 [Compound 21, 5-(3-(2-fluoro-4-methoxyphenoxy)quinoxaline-2-carboxamido)picolinic acid]
56 nM	Cc1cc(Cl)ccc1Oc1nc2ccccc2nc1C(=O)Nc1ccc(C(=O)O)nc1 [Compound 25, 5-(3-(4-chloro-2-methylphenoxy)quinoxaline-2-carboxamido)picolinic acid]
185 nM	COc1ccc(Oc2nc3ccccc3nc2C(=O)Nc2ccc(C(=O)O)nc2)cc1F [Compound 27, 5-(3-(3-fluoro-4-methoxyphenoxy)quinoxaline-2-carboxamido)picolinic acid]
6 nM	COc1cc(F)ccc1Oc1nc2ccccc2nc1C(=O)Nc1cccc(S(N)(=O)=O)c1 [Compound 2, 3-(4-fluoro-2-methoxyphenoxy)-N-(3-sulfamoylphenyl)quinoxaline-2-carboxamide]
220 nM	COc1cc(F)ccc1Oc1nc2ccccc2nc1C(=O)Nc1cn[nH]c1 [Compound 43, 3-(4-fluoro-2-methoxyphenoxy)-N-(1H-pyrazol-4-yl)quinoxaline-2-carboxamide]
1220 nM	COc1cc(F)ccc1Oc1nc2ccccc2nc1C(=O)Nc1nc[nH]n1 [Compound 38, 3-(4-fluoro-2-methoxyphenoxy)-N-(1H-1,2,4-triazol-3-yl)quinoxaline-2-carboxamide]
2600 nM	COc1cc(F)ccc1Oc1nc2ccccc2nc1C(=O)Nc1nc(C(=O)O)co1 [Compound 39, 2-(3-(4-fluoro-2-methoxyphenoxy)quinoxaline-2-carboxamido)oxazole-4-carboxylic acid]
180 nM	O=C(O)c1ccc(NC(=O)c2nc3ccccc3nc2Oc2ccc(OCC(F)(F)F)cc2)cn1 [Compound 22, 5-(3-(4-(2,2,2-trifluoroethoxy)phenoxy)quinoxaline-2-carboxamido)picolinic acid]
460 nM	COc1cc(F)ccc1Oc1nc2ccccc2nc1C(=O)Nc1cccc(C(=O)O)c1 [Compound 36, 3-(3-(4-fluoro-2-methoxyphenoxy)quinoxaline-2-carboxamido)benzoic acid]
6 nM	COc1ccc(Oc2nc3ccccc3nc2C(=O)Nc2cccc(S(N)(=O)=O)c2)c(OC)c1 [Compound 8, 3-(2,4-dimethoxyphenoxy)-N-(3-sulfamoylphenyl)quinoxaline-2-carboxamide]
585 nM	COc1cc(F)ccc1Oc1nc2ccccc2nc1C(=O)Nc1ccc2nc[nH]c2c1 [Compound 49, N-(1H-benzo[d]imidazol-6-yl)-3-(4-fluoro-2-methoxyphenoxy)quinoxaline-2-carboxamide]
15 nM	O=C(O)c1ccc(NC(=O)c2nc3ccccc3nc2Oc2ccc(OC(F)(F)F)cc2)cn1 [Compound 31, 5-(3-(4-(trifluoromethoxy)phenoxy)quinoxaline-2-carboxamido)picolinic acid]

Continued, compound first:

SMILES	IC50
COc1ccc(Oc2nc3ccccc3nc2C(=O)Nc2cccc(S(N)(=O)=O)c2)cc1F [Compound 7, 3-(3-fluoro-4-methoxyphenoxy)-N-(3-sulfamoylphenyl)quinoxaline-2-carboxamide]	42 nM
COc1ccc(Oc2nc3ccccc3cc2C(=O)Nc2cccc(S(N)(=O)=O)c2)c(Cl)c1 [Compound 69, 2-(2-chloro-4-methoxyphenoxy)-N-(3-sulfamoylphenyl)quinoline-3-carboxamide]	15 nM
NS(=O)(=O)c1cccc(NC(=O)c2cc3ccccc3nc2Oc2ccc(OC(F)(F)F)cc2)c1 [Compound 68, N-(3-sulfamoylphenyl)-2-(4-(trifluoromethoxy)phenoxy)quinoline-3-carboxamide]	13 nM
Cc1cc(Cl)ccc1Oc1nc2ccccc2nc1C(=O)Nc1cccc(S(N)(=O)=O)c1 [Compound 9, 3-(4-chloro-2-methylphenoxy)-N-(3-sulfamoylphenyl)quinoxaline-2-carboxamide]	14 nM
Cc1cc(Cl)ccc1Oc1nc2ccccc2cc1C(=O)Nc1cccc(S(N)(=O)=O)c1 [Compound 71, 2-(4-chloro-2-methylphenoxy)-N-(3-sulfamoylphenyl)quinoline-3-carboxamide]	14 nM
NS(=O)(=O)c1cccc(NC(=O)c2cc3ccccc3nc2Oc2ccc(F)cc2)c1 [Compound 60, 2-(4-fluorophenoxy)-N-(3-sulfamoylphenyl)quinoline-3-carboxamide]	17 nM
NS(=O)(=O)c1cccc(NC(=O)c2cc3ccccc3nc2Oc2ccccc2)c1 [Compound 64, 2-phenoxy-N-(3-sulfamoylphenyl)quinoline-3-carboxamide]	81 nM
COc1cc(Cl)ccc1Oc1nc2ccccc2nc1C(=O)Nc1cccc(S(N)(=O)=O)c1 [Compound 11, 3-(4-chloro-2-methoxyphenoxy)-N-(3-sulfamoylphenyl)quinoxaline-2-carboxamide]	5 nM
NS(=O)(=O)c1cccc(NC(=O)c2nc3ccccc3nc2Oc2ccccc2)c1 [Compound 13, 3-phenoxy-N-(3-sulfamoylphenyl)quinoxaline-2-carboxamide]	92 nM
O=C(O)c1ccc(NC(=O)c2nc3ccccc3nc2Oc2ccc(OC(F)(F)F)cc2)cc1 [Compound 17, 4-(3-(4-(trifluoromethoxy)phenoxy)quinoxaline-2-carboxamido)benzoic acid]	44 nM
COc1ccc(Oc2nc3ccccc3cc2C(=O)Nc2cccc(S(N)(=O)=O)c2)cc1F [Compound 62, 2-(3-fluoro-4-methoxyphenoxy)-N-(3-sulfamoylphenyl)quinoline-3-carboxamide]	30 nM
NS(=O)(=O)c1cccc(NC(=O)c2nc3ccccc3nc2Oc2ccc(F)cc2)c1 [Compound 1, 3-(4-fluorophenoxy)-N-(3-sulfamoylphenyl)quinoxaline-2-carboxamide]	27 nM
O=C(O)c1cc(NC(=O)c2nc3ccccc3nc2Oc2ccc(OC(F)(F)F)cc2)ccn1 [Compound 33, 4-(3-(4-(trifluoromethoxy)phenoxy)quinoxaline-2-carboxamido)picolinic acid]	7 nM
COc1ccc(Oc2nc3ccccc3cc2C(=O)Nc2cccc(S(N)(=O)=O)c2)c(OC)c1 [Compound 72, 2-(2,4-dimethoxyphenoxy)-N-(3-sulfamoylphenyl)quinoline-3-carboxamide]	26 nM
COc1cc(F)ccc1Oc1nc2ccccc2cc1C(=O)Nc1cccc(S(N)(=O)=O)c1 [Compound 61, 2-(4-fluoro-2-methoxyphenoxy)-N-(3-sulfamoylphenyl)quinoline-3-carboxamide]	11 nM
